{
  "source": "patent US5057513A",
  "about": "“Spiro-thiazepine derivatives useful as PAF antagonists” (Fujisawa Pharmaceutical Co., Ltd., priority 1989, dated 1991)",
  "key": {"[1]": {"tested_on": "PAF-induced vascular permeability increase", "assay": "Inhibition of PAF-induced vascular permeability increase", "format": "in vivo, 6-week-old male ddY mice", "conditions": "Mus musculus, ip; mice; intraperitoneally, 5 minutes before Evan's blue; PAF 50 ng intradermally; read-out: ED50 (effective dose required to inhibit PAF-induced vascular permeability increase by 50%)", "protocol": "PAF (50 ng) was injected intradermally to the depilated back of 6-week-old male ddY mice. Evan's blue (1 mg) was injected intravenously 5 minutes before the PAF injection, and the test compound was administered intraperitoneally 5 minutes before the Evan's blue injection. Thirty minutes later, the animals were killed and the area of dye leakage was measured.\nThe inhibition was expressed as ED50 value, i.e. effective dose (mg/kg) required to inhibit PAF-induced vascular permeability increase by 50%."}, "[2]": {"tested_on": "platelet aggregation induced with PAF", "assay": "Test 1 (Inhibition of platelet aggregation)", "format": "cell-based, male Japanese white rabbit", "conditions": "Oryctolagus cuniculus; rabbit platelet rich plasma; final concentration of PAF usually 32 nM; read-out: IC50 (concentration required to inhibit the platelet aggregation response by 50%)", "protocol": "Blood was collected through the polyethylene catheter introduced into the carotid artery of male Japanese white rabbit (2.5 to 3 kg body weight). The blood was anticoagulated with 1 volume of 3.8% sodium citrate to 9 volume of blood. Platelet rich plasma (PRP) was prepared by centrifugation of the blood at 150 g for 10 minutes at room temperature. The PRP was diluted with platelet poor plasma obtained by further centrifugation of the blood at 1,000 g for 20 minutes. The platelet number was 5×10^5 cells/mm^3. Platelet aggregation induced with PAF [1-O-hexadecyl-2-O-acetyl-sn-glycero-3-phosphorylcholine] was measured by the nephelometric technique of Born and Cross [cf. Journal of Physiology 168, 178-188 (1963)] using HKK Hema tracer (trade name, made by Niko Bioscience Inc.).\nActivity of inhibitor was expressed as IC50 value, i.e. concentration required to inhibit the platelet aggregation response by 50%. The final concentration of PAF was usually 32 nM."}, "[3]": {"tested_on": "PAF-induced lethality", "assay": "Effect of the test compound on the PAF-induced lethality in rats", "format": "in vivo, male Wistar rats", "conditions": "Rattus norvegicus, survival for 24 hours", "protocol": "Conscious male Wistar rats, 150-200 g body weight, 7 weeks old, were used in the experiment on PAF-induced lethality. The animals were fasted before the experiment. Test compound was given orally 60 minutes before (or intravenously simultaneously with) intravenous PAF injection (10 μg/kg) into a tail vein. Survival of the animals was recorded for 24 hours after intravenous PAF injection."}, "[4]": {"tested_on": "PAF-induced bronchoconstriction", "assay": "Effect of the test compound on PAF-induced bronchoconstriction in the guinea-pig", "format": "in vivo, Male Hartley guinea-pigs", "conditions": "Cavia porcellus, po, orally 30 minutes before PAF (0.64 μg/ml, 1 ml/kg), read-out: ED50 (effective dose of the test compound to inhibit the PAF-induced bronchoconstriction by 50%)", "protocol": "Male Hartley guinea-pigs (400-500 g) were anesthetized with sodium pentobarbital (25 mg/kg, intraperitoneally). The right jugular vein was catheterized for injection of PAF (0.64 μg/ml, 1 ml/kg), and the animals were tracheotomized and ventilated with a respiratory pump (Harvard B-34, 5 ml/stroke, 60 strocks/minutes).\nThe test compound was administered orally 30 minutes before challenge with PAF.\n(ED50 : effective dose of the test compound to inhibit the PAF-induced bronchoconstriction by 50%)."}, "[5]": {"tested_on": "endotoxin-induced disseminated intravascular coagulation (serum FDP)", "assay": "Effect of the test compound on the endotoxin-induced disseminated intravascular coagulation", "format": "in vivo, male Wister rats", "conditions": "Rattus norvegicus, rats", "protocol": "Conscious male Wister rats, 150-200 g body weight, 7 weeks old, were used in the experiment on endotoxin-induced disseminated intravascular coagulation (DIC). The animals were fasted before the experiment. A 10 mg/kg dose of endotoxin (E. coli) dissolved in saline was given as an injection via tail vein. Test compound was given orally 60 minutes before and 6 hours after endotoxin. The intravenous administration of the test compound into a tail vein was simultaneous with intravenous injection of endotoxin.\nArterial blood samples were taken 4 hours (Test compound; intravenously) and 24 hours (Test compound; orally) after endotoxin for measurements of serum FDP (fibrin degradation products), respectively. FDP was determined by the latex aggregation test."}},
  "note": "Where two headings read alike, the source gives them in different places.",
  "data": [
    {"smiles": "O=C1CC2(CCCCC2Cc2cccc(Cl)c2)S(=O)(=O)CCN1Cc1cccnc1", "note": "(stereo not shown) [1-(3-Chlorophenylmethyl)-10-(3-pyridylmethyl)-11-oxo-7-thia-10-azaspiro[5.6]dodecane 7,7-dioxide]", "values": [
      {"measurement": "ED50", "setting": "[1]", "value": 2.9, "unit": "mg/kg"}
    ]},
    {"smiles": "CN(C)CCN1C(=O)CC2(CCCCC2Cc2ccccc2Cl)[S+]([O-])c2ccccc21", "note": "(stereo not shown) [2'-(2-Chlorophenylmethyl)-4,5-dihydro-4-oxo-5-{2-(N,N-dimethylamino)ethyl}spiro[1,5-benzothiazepine-2(3H), 1'-cyclohexane] 1-oxide]", "values": [
      {"measurement": "IC50", "setting": "[2]", "value": 0.17, "unit": "µg/mL"}
    ]},
    {"smiles": "O=C1C[C@]2(CCCC[C@H]2Cc2ccccc2)S(=O)(=O)CCN1Cc1cccnc1", "note": "[(1S,6S)-1-Phenylmethyl-10-(3-pyridylmethyl)-11-oxo-7-thia-10-azaspiro[5.6]dodecane 7,7-dioxide]", "values": [
      {"measurement": "ED50", "setting": "[3]; intravenous, simultaneously with PAF 10 μg/kg i.v., read-out: ED50 (mg/kg), PAF-induced lethality, intravenous", "value": 1, "unit": "mg/kg"},
      {"measurement": "ED50", "setting": "[3]; oral, 60 minutes before PAF 10 μg/kg i.v., read-out: ED50 (mg/kg), PAF-induced lethality, oral", "value": 2, "unit": "mg/kg"},
      {"measurement": "ED50", "setting": "[4]", "value": 3.7, "unit": "mg/kg"},
      {"measurement": "ED50", "setting": "[5]; intravenous, simultaneous with endotoxin 10 mg/kg, serum FDP at 4 hours, read-out: ED50 (mg/kg), endotoxin-induced DIC, intravenous", "value": 2.4, "unit": "mg/kg"},
      {"measurement": "ED50", "setting": "[5]; oral, 60 minutes before and 6 hours after endotoxin 10 mg/kg, serum FDP at 24 hours, read-out: ED50 (mg/kg), endotoxin-induced DIC, oral", "value": 6.8, "unit": "mg/kg"}
    ]}
  ]
}
